The values below come from US20100022483A1, “Substituted Tetracycline Compounds” (Paratek Pharmaceuticals, Inc., priority 2008, published 2010).

In one series the test system is gram positive bacteria. Briefly: In vitro anti-bacterial activity assay (broth dilution MIC), gram positive bacteria. Type of series: cell-based, S. aureus. The note with it: 18 h. A digest of the protocol:
(§1)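 Broth dilution MIC following CLSI M7-A2: compounds serially diluted, log-phase test strains added to final ~5×10^5 CFU/ml, incubated ~18 hours at 35° C in ambient air. Plates read on microplate reader or visually; MIC is lowest concentration inhibiting growth.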
In general terms: In broth dilution the organism is exposed to a series of concentrations in liquid medium.

The nature of series [1]: Mammalian cytotoxicity assay (resazurin), COS-1 cells. The class given is cell-based. The note with it: African green monkey, read-out: Cytotox. COS-1. The procedure, abridged:
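Cells seeded overnight at 37° C., 5% CO2, then exposed to serial compound dilutions for 24 hours. Medium replaced with resazurin (0.042 mg/ml in PBS with Ca and Mg) for 2 hours plus 30 minutes dark at room temperature; fluorescence read at ex 535/em 590 nm, IC50 taken as 50% growth inhibition.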
In general terms: Alamar Blue is a resazurin reagent that responds to reducing activity.

Another series deals with gram negative bacteria. Briefly: In vitro anti-bacterial activity assay (broth dilution MIC), gram negative bacteria. The class given is cell-based, E. coli. The procedure, abridged: as §1
A further series in a line: in vitro. The class given is cell-based. The note with it: Chinese hamster, Cytotox. CHO-K1.
In another series the test system is 3T3 fibroblast cells. The series can be described thus: In vitro phototoxicity assay (neutral red; UV light-treated vs dark control plates). Type of series: cell-based. The note with it: for Photo Toxicity UV Tox50: UV light 50 minutes; for Photo Toxicity Dark Tox50: dark control plate. A digest of the protocol: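 Neutral red viability readout (A535 after EtOH/acetic acid extraction) compares paired plates: one exposed 50 min to UV at 1.6–1.8 mW/cm^2, one held in darkness, both dosed with compound in HBSS and recovered overnight. 3T3 fibroblast cells used; phototoxicity taken as the difference.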

Setting [2] is: Staphylococcus aureus, S. aureus MRSA5, read-out: Median MIC's G+ S. aureus MRSA5.
Setting [3] is: Staphylococcus aureus, S. aureus RN450, read-out: Median MIC's G+ S. aureus RN450.
Setting [4] is: Streptococcus pneumoniae, S. pneumoniae 157E-Strep, read-out: Median MIC's G+ S. pneumoniae 157E-Strep.
[5] abbreviates: Escherichia coli, 18 h, E. coli D1 209, read-out: Median MIC's G− E. coli D1 209.
The mark [6] stands for this setting: Escherichia coli, 18 h, E. coli MG 1655, read-out: Median MIC's G− E. coli MG 1655.
[7] abbreviates: Escherichia coli, ATCC25922, 18 h, E. coli ATCC 25922, read-out: Median MIC's G− E. coli ATCC 25922.
The mark [8] stands for this setting: Pseudomonas aeruginosa, 18 h, P. aeruginosa K201 PAO6609, read-out: Median MIC's G− P. aeruginosa K201 PAO6609.

≈ marks a conversion by molar mass, not a printed value. Like-named read-outs stand apart in the source and are kept apart here.

One may read the MIC as the lowest concentration found to suppress growth. Consider `CC(=O)NCCNC(=O)c1cccc(-c2ccc(O)c3c2C[C@H]2C[C@H]4[C@H](N(C)C)C(O)=C(C(N)=O)C(=O)[C@@]4(O)C(O)=C2C3=O)c1` [S], for which the minimum inhibitory concentration (MIC) came to 32 µg/mL (≈ 51.7 µM) in the series with gram positive bacteria (setting [2]); 2 µg/mL (≈ 3.23 µM) in the series with gram positive bacteria (setting [3]); 2 µg/mL (≈ 3.23 µM) with gram positive bacteria (setting [4]); 64 µg/mL (≈ 103 µM) in the series on gram negative bacteria (setting [5]); 64 µg/mL (≈ 103 µM) in the series on gram negative bacteria (setting [6]); 64 µg/mL (≈ 103 µM) with gram negative bacteria (setting [7]). Besides, the MIC with gram negative bacteria (setting [8]) came to 64 µg/mL (≈ 103 µM). Moreover, the IC50 at 24 h (in series [1]; in “in vitro”) was above 13 µM each time. Further, the “Photo Toxicity UV Tox50” value in the series on 3T3 fibroblast cells was above 129.75 µM. Besides, the “Photo Toxicity Dark Tox50” value with 3T3 fibroblast cells is above 129.75 µM.
Take `COCC(=O)c1ccc(O)c2c1C[C@H]1C[C@H]3[C@H](N(C)C)C(O)=C(C(N)=O)C(=O)[C@@]3(O)C(O)=C1C2=O` [BW]: the minimum inhibitory concentration (MIC) worked out at 1 µg/mL (≈ 2.06 µM) in the series on gram positive bacteria (setting [2]); 0.06 µg/mL (≈ 0.123 µM) in the series on gram positive bacteria (setting [3]); 0.06 µg/mL (≈ 0.123 µM) in the series on gram positive bacteria (setting [4]); 64 µg/mL (≈ 132 µM) in the series with gram negative bacteria (setting [5]); 0.5 µg/mL (≈ 1.03 µM) in the series with gram negative bacteria (setting [6]); 0.5 µg/mL (≈ 1.03 µM) with gram negative bacteria (setting [7]). Further, in the series on gram negative bacteria (setting [8]), the minimum inhibitory concentration (MIC) amounted to 32 µg/mL (≈ 65.8 µM). Further, the IC50 at 24 h (in series [1]; in the series “in vitro”) was above 53.4 µM throughout. Besides, the “Photo Toxicity UV Tox50” value in the series on 3T3 fibroblast cells is above 172.1 µM. For the same molecule, in the series on 3T3 fibroblast cells, the “Photo Toxicity Dark Tox50” value is above 172.1 µM.
Take `COCCCOCCN(C)Cc1cccc(-c2ccc(O)c3c2C[C@H]2C[C@H]4[C@H](N(C)C)C(O)=C(C(N)=O)C(=O)[C@@]4(O)C(O)=C2C3=O)c1` [DE]: the minimum inhibitory concentration (MIC) with gram positive bacteria (setting [2]) was determined as 2 µg/mL (≈ 3.08 µM); in the series with gram positive bacteria (setting [3]), 0.06 µg/mL (≈ 0.0923 µM); in the series with gram positive bacteria (setting [4]), 0.06 µg/mL (≈ 0.0923 µM); in the series on gram negative bacteria (setting [5]), 2 µg/mL (≈ 3.08 µM); with gram negative bacteria (setting [6]) it was 8 µg/mL (≈ 12.3 µM); in the series on gram negative bacteria (setting [7]), 2 µg/mL (≈ 3.08 µM). For the same molecule, the minimal inhibitory concentration (MIC) in the series with gram negative bacteria (setting [8]) was 64 µg/mL (≈ 98.5 µM). Moreover, the IC50 at 24 h (in series [1]; in “in vitro”) was above 20 µM throughout. In the series on 3T3 fibroblast cells, the “Photo Toxicity UV Tox50” value was above 200 µM. In addition, the “Photo Toxicity Dark Tox50” value with 3T3 fibroblast cells was above 200 µM.
Regarding `CN(C)[C@@H]1C(O)=C(C(N)=O)C(=O)[C@@]2(O)C(O)=C3C(=O)c4c(O)ccc(C(=O)CNCC(C)(C)C)c4C[C@H]3C[C@@H]12` [BP], the MIC in the series with gram positive bacteria (setting [2]) is 16 µg/mL (≈ 29.5 µM); in the series with gram positive bacteria (setting [3]) it was 2 µg/mL (≈ 3.69 µM); in the series on gram positive bacteria (setting [4]) it was 2 µg/mL (≈ 3.69 µM); in the series with gram negative bacteria (setting [5]), 64 µg/mL (≈ 118 µM); in the series on gram negative bacteria (setting [6]), 32 µg/mL (≈ 59.1 µM); in the series with gram negative bacteria (setting [7]), 32 µg/mL (≈ 59.1 µM). For the same molecule, the minimal inhibitory concentration (MIC) in the series with gram negative bacteria (setting [8]) is 64 µg/mL (≈ 118 µM). Moreover, the IC50 at 24 h (in series [1]; in “in vitro”) was above 42.9 µM in each case. In addition, in the series with 3T3 fibroblast cells, the “Photo Toxicity UV Tox50” value was above 138.32 µM. In addition, in the series with 3T3 fibroblast cells, the “Photo Toxicity Dark Tox50” value is above 138.32 µM.
`CN(C)[C@@H]1C(O)=C(C(N)=O)C(=O)[C@@]2(O)C(O)=C3C(=O)c4c(O)ccc(C(=O)CNCc5cccn5C)c4C[C@H]3C[C@@H]12` [CE]: the minimum inhibitory concentration (MIC) with gram positive bacteria (setting [2]) came out at 4 µg/mL (≈ 7.08 µM); with gram positive bacteria (setting [3]), 0.25 µg/mL (≈ 0.443 µM); with gram positive bacteria (setting [4]) it was 0.5 µg/mL (≈ 0.886 µM); with gram negative bacteria (setting [5]) it was 64 µg/mL (≈ 113 µM); in the series on gram negative bacteria (setting [6]), 4 µg/mL (≈ 7.08 µM); with gram negative bacteria (setting [7]), 4 µg/mL (≈ 7.08 µM). In addition, the minimal inhibitory concentration (MIC) in the series on gram negative bacteria (setting [8]) was found to be 64 µg/mL (≈ 113 µM). Also, the IC50 at 24 h (in series [1]; in “in vitro”) was above 41.4 µM each time. The “Photo Toxicity UV Tox50” value with 3T3 fibroblast cells is above 133.53 µM. Further, in the series with 3T3 fibroblast cells, the “Photo Toxicity Dark Tox50” value is above 133.53 µM.
`CN(C)CCN(C)Cc1ccc(-c2ccc(O)c3c2C[C@H]2C[C@H]4[C@H](N(C)C)C(O)=C(C(N)=O)C(=O)[C@@]4(O)C(O)=C2C3=O)o1` [CZ]: the MIC with gram positive bacteria (setting [2]) is 16 µg/mL (≈ 26.9 µM); with gram positive bacteria (setting [3]) it was 0.06 µg/mL (≈ 0.101 µM); in the series with gram positive bacteria (setting [4]), 0.06 µg/mL (≈ 0.101 µM); with gram negative bacteria (setting [5]) it was 16 µg/mL (≈ 26.9 µM); in the series with gram negative bacteria (setting [6]), 4 µg/mL (≈ 6.73 µM); with gram negative bacteria (setting [7]), 4 µg/mL (≈ 6.73 µM). Besides, the MIC in the series with gram negative bacteria (setting [8]) came to 64 µg/mL (≈ 108 µM). For the same molecule, the IC50 at 24 h (in series [1]; in “in vitro”) was above 13.8 µM in each case. Also, in the series on 3T3 fibroblast cells, the “Photo Toxicity UV Tox50” value was above 137.77 µM. Also, the “Photo Toxicity Dark Tox50” value in the series with 3T3 fibroblast cells is above 137.77 µM.
Turning to `CN(C)[C@@H]1C(O)=C(C(N)=O)C(=O)[C@@]2(O)C(O)=C3C(=O)c4c(O)ccc(C(=O)CN5CCN(C6CCCCC6)CC5)c4C[C@H]3C[C@@H]12` [BU], the minimal inhibitory concentration (MIC) in the series with gram positive bacteria (setting [2]) worked out at 1 µg/mL (≈ 1.61 µM); in the series with gram positive bacteria (setting [3]), 0.13 µg/mL (≈ 0.209 µM); in the series on gram positive bacteria (setting [4]), 0.06 µg/mL (≈ 0.0964 µM); in the series on gram negative bacteria (setting [5]) it was 2 µg/mL (≈ 3.21 µM); with gram negative bacteria (setting [6]), 0.5 µg/mL (≈ 0.803 µM); with gram negative bacteria (setting [7]), 1 µg/mL (≈ 1.61 µM). In addition, in the series on gram negative bacteria (setting [8]), the MIC amounted to 64 µg/mL (≈ 103 µM). The IC50 at 24 h (in series [1]; in “in vitro”) was above 123 µM each time. Also, in the series with 3T3 fibroblast cells, the “Photo Toxicity UV Tox50” value is above 122.93 µM. For the same molecule, the “Photo Toxicity Dark Tox50” value in the series with 3T3 fibroblast cells was above 122.93 µM.
